Measurements as given in PMC11449324, “Functional comparison of human and murine equilibrative nucleobase transporter 1” (PLOS ONE, 2024).

Target: T1, mENBT1 (slc43a3-encoded mouse ENBT1) (Mus musculus, UniProt A2AVZ9)
T1 construct: Oligonucleotides corresponding to the coding region of SLC43A3 (NM_001278201) or slc43a3 (NM_021398); expressed in transfected cells; HEK293-mslc43a3
T1 sequence (A2AVZ9 1-502): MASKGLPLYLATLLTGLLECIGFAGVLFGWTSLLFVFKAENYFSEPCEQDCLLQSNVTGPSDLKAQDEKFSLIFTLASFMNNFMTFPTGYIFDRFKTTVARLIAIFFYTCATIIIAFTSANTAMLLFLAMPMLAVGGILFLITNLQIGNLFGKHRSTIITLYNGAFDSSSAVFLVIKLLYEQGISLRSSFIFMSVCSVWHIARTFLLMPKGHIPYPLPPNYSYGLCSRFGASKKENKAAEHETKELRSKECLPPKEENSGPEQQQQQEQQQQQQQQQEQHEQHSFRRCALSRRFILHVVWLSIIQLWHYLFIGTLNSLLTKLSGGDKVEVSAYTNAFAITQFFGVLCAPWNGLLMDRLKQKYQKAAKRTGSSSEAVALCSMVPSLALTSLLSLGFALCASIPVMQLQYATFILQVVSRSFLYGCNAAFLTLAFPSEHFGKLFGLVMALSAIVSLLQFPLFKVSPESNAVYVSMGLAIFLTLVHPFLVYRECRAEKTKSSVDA
Assay: Radiolabelled substrate uptake (oil-stop, 2 s) in HEK293-mslc43a3 cells
Type: cell-based
Procedure: Harvested cells were suspended in nominally sodium-free N-methyl-D-glucamine (NMG) buffer (140 mM NMG, 5 mM KCl, 4.2 mM KHCO3, 0.36 mM K2HPO4, 0.44 mM KH2PO4, 0.5 mM MgCl2, 1.3 mM CaCl2, 10 mM HEPES, pH 7.4), to minimize potential contribution of sodium-dependent concentrative nucleoside transporter-mediated uptake. Additionally, cells were incubated for 15 minutes at room temperature with 10 μM dipyridamole (DY), an equilibrative nucleoside transporter (ENT) inhibitor, to block equilibrative nucleoside transporter–mediated uptake. The substrate uptake assay was initiated by adding 250 μL cell suspension to 250 μL [^3H] labeled substrate, layered over 21:4 silicone:mineral oil (200 μL) in 1.5 mL microcentrifuge tubes (conducted at room temperature). The uptake reaction was terminated after 2 seconds by centrifugation of the cells through the oil layer at ~10,000 g. […] The resulting cell pellet was digested in 250 μL 1 M NaOH overnight (~16 hours), with 220 μL aliquots of digested cells assessed for radioactive content using standard liquid scintillation counting techniques in a Beckman Coulter LS6500 scintillation system (Brea, CA).
In transfected-HEK293 cell lines, total uptake was defined as uptake of radiolabeled substrate in cells overexpressing recombinant hENBT1 or mENBT1. […] ENBT1-mediated uptake was calculated as total uptake minus the non-mediated uptake. […]

6-MP Km relative to adenine Km: 3 fold
6-MP Vmax relative to adenine Vmax: 3 fold
SMILES: Sc1ncnc2nc[nH]c12 [6-MP, 6-Mercaptopurine]
